Measurements taken from US20240189307A1, “METHODS OF STABILIZING THE NEURONAL PROTEOME AGAINST COLLAPSE AND PROTECTING VASCULAR CELLS” (ALBERT EINSTEIN COLLEGE OF MEDICINE, priority 2021, published 2024).

How the values were obtained:
Assay type in all cases: in vivo
[1] = Pharmacokinetic analysis in mice brain after p.o. and i.v. administration; conditions: p.o. 10 mg/Kg and i.v. 1 mg/kg
[2] = Blood cell count and histopathology of peripheral organs (liver, lung, kidney) after daily oral administration; conditions: after 3 months of daily treatment
PS19 mice (tau P301S) = assay: PS19 mouse model of Frontotemporal dementia-related proteotoxicity, oral daily CA
Description: FIG. 11. Chemical activation of CMA improves behavior and neuropathology in a mouse model of Frontotemporal dementia-related proteotoxicity. (A) Schematic of regimen of CMA activator (CA) administration to mice overexpressing human P301S tau (PS19). (B, C) Spontaneous locomotion in an open field of 9-month-old CTR or PS19 mice administered vehicle (Veh) or CA. Representative tracks (B) and total distance traveled in 10 min (C). (D-H) Immunostaining for MC1 tau in the hippocampus, the amygdala and the piriform cortex of 9 months old CTR, PS19 +/− CA. Representative images of the indicated brain regions (D). Scale bars: hippocampus: 500 μm, amygdala and piriform cortex: 200 μm. Quantification of the area stained in the hippocampus (E), (F-J) Immunoblots for tau and phosphorylated tau. Representative immunoblots and densitometric quantifications for the indicated proteins: S422-phosphorylated tau (G), S202/T205-phosphorylated tau (AT8) (H), MC1 tau (I) and total tau (J). (K-M) Immunostaining for Iba1 (K) and quantification of average cell size in the hippocampus (L) and the piriform cortex (M). Scale bars: hippocampus: 500 μm and piriform cortex: 200 μm. Data are mean+s.e.m. Individual values are shown for n=9-10 mice per genotype and treatment in C, E, G-M). Comparisons were made using one-way ANOVA followed by Tukey's post-hoc analysis (C, E, G, I-M) or Kruskal-Wallis test followed by Dunn's post hoc test (H). *p<0.05, **p<0.005, ***p<0.0005.
Male wild-type mice (C57BL/6J) or transgenic for CaMKIIα-Cre (B6.Cg-Tg(Camk2α-cre)T29-1Stl/J, Jackson Laboratory), LAMP-2A^flox/flox (Schneider et al., 2014), Tau^P301L (line pR5), Tg (APP^Swe; PS2^N141I; Tau^P301L), PS19 (Tau^P301S) (Yoshiyama et al., 2007) and Atg7^f/f were used in the study. Conditional LAMP-2A deletion was generated by breeding LAMP-2A^flox/flox with the transgenic Cre mice of interest. Knockout for L2A in the whole body (L2A^−/−) was generated by insemination of a wild-type female with spermatozoids with L2A floxed to excise this gene in all tissues in the offspring. Male littermate wild type and only L2A^f/f were separately analyzed for each test and because no differences were detected among them, they were grouped in the results as “control” (CTR) for the experimental group (^CamKII[…] CreL2A^f/f or L2A^−/−). All mice were genotyped at weaning and genotyping was re-confirmed postmortem to correct for any possible misplacement during husbandry. Mice were all in the C57BL/6J background and maintained under specific pathogen-free conditions in ventilated cages with no more than 5 mice per cage. Only males were used in this study due to the complexity in generating the quadruple transgenic mouse model with L2A knock out in homozygosis (for which we took advantage of the location of the Lamp2 gene in the X chromosome). Age of the animals was 4-6 months in most experiments except when otherwise indicated in text, figures and figure legends. Animals were maintained at 19-23° C. in 12 h light/dark cycle. Mice were fed ad libitum. CA77.1 was administered as sucralose jelly pellets for a daily dose of 30 mg/Kg body weight whereas the vehicle treated group received the same sucralose jelly pellet without drug. Briefly, for preparation of the jelly pellets the final amount of the compound per day (adjusted per animal weight) was dissolved in ethanol and then mixed with a warm gelatin solution (100 mg/ml, 10 mg/ml sucralose in water), that was poured into 24 well flat bottom plates for solidification. To avoid animal stress and competition for the pellets, animals were separated with a grid spacer in the same cage that they were housed, eating of the pellet was monitored and the spacer was removed as soon as all mice consumed the pellet (average time 2 min). Sentinel animals were included in each study to determine brain exposure at the end of treatment. These animals received the same batch of jelly pellets in parallel to the experimental group. […]

In the case of CC(=O)Nc1ccc(-c2cnc3cc(Cl)ccc3n2)cc1 [CA77.1], the “brain penetrance and pharmacokinetics” value [1] is reported as “brain penetrance with favorable pharmacokinetics”, the “blood or major organs toxicity” value [2] is reported as “absence of blood or major organs toxicity” and the “spontaneous locomotion in open field (locomotor hyperactivity)” value (PS19 mice (tau P301S); 30 mg/kg body weight oral daily for 6 months from 3 months of age) is reported as “normalized the previously described locomotor hyperactivity of PS19 mice to control levels”. The “immunoblot levels of aberrant, phosphorylated, oligomeric and insoluble tau” value (PS19 mice (tau P301S); 30 mg/kg oral daily, 6 months) was “lower levels of conformationally aberrant, S422 and AT8 phosphorylated, oligomeric and insoluble forms of tau”, the “total levels of human tau” value (PS19 mice (tau P301S); 30 mg/kg oral daily, 6 months) was “did not reduce total levels of human tau” and the “number of microglial cells and large Iba1-positive dystrophic cells” value (PS19 mice (tau P301S); hippocampus and piriform cortex, 30 mg/kg oral daily, 6 months) was “reduced upon CA treatment”. For the same molecule, the “MC1 pathogenic tau conformations, levels and number of neurons” value (PS19 mice (tau P301S); hippocampus, amygdala and piriform cortex, 30 mg/kg oral daily, 6 months) was “reduced the levels and number of neurons containing pathogenic tau conformations” and the “mice with tau Type III pathology (S202/T205, AT8 staining)” value (PS19 mice (tau P301S); hippocampus, 30 mg/kg oral daily, 6 months, vehicle 60%) was 10%.
